The text below walks through data of patent publication US20250346593A1, “IMIDAZO(1,2-1)PYRIDINE DERIVATIVES AS RIPK2 INHIBITORS” (Interline Therapeutics, Inc., priority 2022, published 2025).

The term pIC50 denotes −log10 of the IC50, conventionally taken in molar units.

The structures appear in SMILES notation. pIC50: −log10 of the molar value. Like-named read-outs stand apart in the source and are kept apart here.

This assay deals with GST-RIPK2 fusion protein (human RIPK2 amino acids 1-310) (Homo sapiens (Human), UniProt O43353). The experiment in a line: RIPK2 binding competition assay (TR-FRET, Tracer 199). For orientation: TR-FRET usually uses a lanthanide donor and a delayed reading to cut background.
Chain of GST-RIPK2 fusion protein (human RIPK2 amino acids 1-310) (O43353 1-310): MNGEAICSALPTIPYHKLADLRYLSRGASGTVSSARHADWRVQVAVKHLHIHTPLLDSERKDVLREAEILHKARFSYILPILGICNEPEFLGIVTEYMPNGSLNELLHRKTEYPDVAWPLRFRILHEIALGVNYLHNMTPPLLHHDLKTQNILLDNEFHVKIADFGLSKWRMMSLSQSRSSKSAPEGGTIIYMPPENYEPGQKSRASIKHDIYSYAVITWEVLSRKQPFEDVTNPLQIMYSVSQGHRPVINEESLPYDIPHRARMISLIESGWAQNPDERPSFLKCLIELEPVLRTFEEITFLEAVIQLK
Where [1] appears, read: read-out: RIPK2 IC50, RIPK2 binding competition assay.

For the compound `COc1cc2ncc(-c3cc(F)nc(NCCC(C)O)c3)n2cc1S(=O)(=O)C(C)(C)C` (racemic) [Example 190, rac-4-((4-(6-(tert-butylsulfonyl)-7-methoxyimidazo[1,2-a]pyridin-3-yl)-6-fluoropyridin-2-yl)amino)butan-2-ol], the negative-log IC50 (pIC50) was over 9.00. As to `COc1cc2ncc(-c3ccnc(F)c3)n2cc1S(=O)(=O)C(C)(C)C` [Example 5, 6-(tert-butylsulfonyl)-3-(2-fluoropyridin-4-yl)-7-methoxyimidazo[1,2-a]pyridine], the negative logarithm of the IC50 (pIC50) is 7.70 to 8.60. Still for that read-out and setting: then `COc1cc2ncc(-c3cc(C)nc(F)c3)n2cc1S(=O)(=O)C(C)(C)C` [Example 12, 2-fluoro-4-[7-methoxy-6-(2-methylpropane-2-sulfonyl)imidazo[1,2-a]pyridin-3-yl]-6-methylpyridine], with 7.70 to 8.60. Turning to `COc1ccc(-c2cnc3cc(OC)c(S(=O)(=O)C4CC4)cn23)cc1N` [Example 33, 5-(6-(cyclopropylsulfonyl)-7-methoxyimidazo[1,2-a]pyridin-3-yl)-2-methoxyaniline], the pIC50 under setting [1] is under 7.70.

As for `COc1ccc(-c2cnc3cc(OC)c(S(=O)(=O)C(C)(C)C)cn23)cc1F` [Example 63, 6-(tert-butylsulfonyl)-3-(3-fluoro-4-methoxyphenyl)-7-methoxyimidazo[1,2-a]pyridine], the negative-log IC50 (pIC50) is 7.70 to 8.60. `COc1cc2ncc(-c3ccc(N)c(C#N)c3)n2cc1S(=O)(=O)C(C)(C)C` [Example 70, 2-amino-5-(6-(tert-butylsulfonyl)-7-methoxyimidazo[1,2-a]pyridin-3-yl)benzonitrile] gave a pIC50 of 7.70 to 8.60. Take `COc1cc2ncc(-c3cc(Cl)ncc3C)n2cc1S(=O)(=O)C(C)(C)C` [Example 159, 6-(tert-Butylsulfonyl)-3-(2-chloro-5-methylpyridin-4-yl)-7-methoxyimidazo[1,2-a]pyridine]: the pIC50 under setting [1] is under 7.70. The compound `CC(C)(C)S(=O)(=O)c1ccc2ncc(-c3cc(F)nc(NCCC4(O)CC4)c3)n2c1` [Example 172, 1-(2-((4-(6-(tert-butylsulfonyl)imidazo [1,2-a]pyridin-3-yl)-6-fluoropyridin-2-yl)amino)ethyl)cyclo-propan-1-ol] gave a pIC50 of 8.60 to 9.00. In the case of `CC(C)(C)S(=O)(=O)c1ccc2ncc(-c3cc(F)nc(NCCCO)c3)n2c1` [Example 173, 3-((4-(6-(tert-butylsulfonyl)imidazo [1,2-a]pyridin-3-yl)-6-fluoropyridin-2-yl)amino)propan-1-ol], the negative-log IC50 (pIC50) is 7.70 to 8.60. `COc1cc2ncc(-c3cc(F)nc(NC4CC4)c3)n2cc1S(=O)(=O)C(C)(C)C` [Example 177, 4-(6-(tert-butylsulfonyl)-7-methoxyimidazo[1,2-a]pyridin-3-yl)-N-cyclopropyl-6-fluoropyridin-2-amine]: the negative logarithm of the IC50 (pIC50) under setting [1] was over 9.00. As to `COc1cc2ncc(-c3cc(F)nc(NCCC4(O)CCC4)c3)n2cc1S(=O)(=O)C(C)(C)C` [Example 187, 1-(2-((4-(6-(tert-butylsulfonyl)-7-methoxyimidazo[1,2-a]pyridin-3-yl)-6-fluoropyridin-2-yl)amino)ethyl)cyclo-butan-1-ol], the pIC50 under setting [1] was over 9.00. On the same count and under the same terms, the value for `COc1cc2ncc(-c3cc(F)nc(NCCC(C)(C)O)c3)n2cc1S(=O)(=O)C(C)(C)C` [Example 189, 4-((4-(6-(tert-butylsulfonyl)-7-methoxyimidazo[1,2-a]pyridin-3-yl)-6-fluoropyridin-2-yl)amino)-2-methylbutan-2-ol] was over 9.00. `COc1cc2ncc(-c3cc(F)nc(N[C@H]4C[C@@H](O)C4)c3)n2cc1S(=O)(=O)C(C)(C)C` [Example 191, (1s,3s)-3-((4-(6-(tert-butylsulfonyl)-7-methoxyimidazo[1,2-a]pyridin-3-yl)-6-fluoropyridin-2-yl)amino)cyclobutan-1-ol] had a pIC50 of over 9.00. On the same count and under the same terms, the value for `COc1cc2ncc(-c3cc(F)nc(N[C@H]4CC[C@H](O)CC4)c3)n2cc1S(=O)(=O)C(C)(C)C` [Example 204, (1r,4r)-4-((4-(6-(tert-butylsulfonyl)-7-methoxyimidazo[1,2-a]pyridin-3-yl)-6-fluoropyridin-2-yl)amino)cyclohexan-1-ol] was 8.60 to 9.00.
